The numbers were not newly measured in patent US20140370086A1, “SUBLINGUAL IMMUNOTHERAPY WITH REDUCED ORAL ITCHINESS” (priority 2013, published 2014), which cites them from elsewhere.

The conditions of this series: at high doses.

As for `O=C(O)c1cc(=O)c2c(OCC(O)COc3cccc4oc(C(=O)O)cc(=O)c34)cccc2o1` [Cromolyn, Cromolyn sodium (cromoglicic acid)], the toxicity entry was “no toxicity at high doses”.
